{"source": "the supplement of paper PMC10307832", "experiment_in_all_cases": "relative viability (nuclei count vs DMSO), 5 days (fraction); higher = more cells survive", "key": {"PC-14": {"tested_on": "PC-14", "summary_of_the_method": "(§1)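 Relative viability equals treated-well nuclei counts divided by vehicle-well nuclei counts. Counts came from 4× images of lung cancer cell lines grown in 1536-well plates for 5 days after pin-tool dosing on the day after seeding. Dosing used one drug alone or a fixed anchor-drug dose plus five library-drug doses (not always all listed) in √10 steps, and values are medians of duplicate plates.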"}, "SK-LU-1": {"tested_on": "SK-LU-1", "summary_of_the_method": "as §1"}, "EKVX": {"tested_on": "EKVX", "summary_of_the_method": "as §1"}, "NCI-H1792": {"tested_on": "NCI-H1792", "summary_of_the_method": "as §1"}, "NCI-H520": {"tested_on": "NCI-H520", "summary_of_the_method": "as §1"}, "A-427": {"tested_on": "A-427", "summary_of_the_method": "as §1"}, "HCC-827": {"tested_on": "HCC-827", "summary_of_the_method": "as §1"}, "NCI-H2087": {"tested_on": "NCI-H2087", "summary_of_the_method": "as §1"}, "NCI-H3122": {"tested_on": "NCI-H3122", "summary_of_the_method": "as §1"}, "NCI-H1437": {"tested_on": "NCI-H1437", "summary_of_the_method": "as §1"}, "ABC-1": {"tested_on": "ABC-1", "summary_of_the_method": "as §1"}, "LCLC-103H": {"tested_on": "LCLC-103H", "summary_of_the_method": "as §1"}, "COR-L23": {"tested_on": "COR-L23", "summary_of_the_method": "as §1"}, "201T": {"tested_on": "201T", "summary_of_the_method": "as §1"}, "SW 1573": {"tested_on": "SW 1573", "summary_of_the_method": "as §1"}, "NCI-H1666": {"tested_on": "NCI-H1666", "summary_of_the_method": "as §1"}, "EPLC-272H": {"tested_on": "EPLC-272H", "summary_of_the_method": "as §1"}, "HCC-44": {"tested_on": "HCC-44", "summary_of_the_method": "as §1"}, "NCI-H2023": {"tested_on": "NCI-H2023", "summary_of_the_method": "as §1"}, "RERF-LC-KJ": {"tested_on": "RERF-LC-KJ", "summary_of_the_method": "as §1"}, "SW 900": {"tested_on": "SW 900", "summary_of_the_method": "as §1"}, "NCI-H2009": {"tested_on": "NCI-H2009", "summary_of_the_method": "as §1"}, "COR-L 105": {"tested_on": "COR-L 105", "summary_of_the_method": "as §1"}, "EMC-BAC-2": {"tested_on": "EMC-BAC-2", "summary_of_the_method": "as §1"}, "LU99A": {"tested_on": "LU99A", "summary_of_the_method": "as §1"}}}
{"compound": "Nc1cccc2c1CN(C1CCC(=O)NC1=O)C2=O", "note": "(configuration not stated) [Lenalidomide] + CC(=O)c1c(C)c2cnc(Nc3ccc(N4CCNCC4)cn3)nc2n(C2CCCC2)c1=O [Palbociclib] (partner 0.5 µM)", "values": [{"measurement": "relative viability", "setting": "PC-14; first compound 0.253 µM", "result": 0.541}, {"measurement": "relative viability", "setting": "PC-14; first compound 0.8 µM", "result": 0.533}, {"measurement": "relative viability", "setting": "PC-14; first compound 2.53 µM", "result": 0.6}, {"measurement": "relative viability", "setting": "PC-14; first compound 8 µM", "result": 0.685}, {"measurement": "relative viability", "setting": "SK-LU-1; first compound 0.253 µM", "result": 0.366}, {"measurement": "relative viability", "setting": "SK-LU-1; first compound 0.8 µM", "result": 0.342}, {"measurement": "relative viability", "setting": "SK-LU-1; first compound 2.53 µM", "result": 0.413}, {"measurement": "relative viability", "setting": "SK-LU-1; first compound 8 µM", "result": 0.354}, {"measurement": "relative viability", "setting": "EKVX; first compound 0.253 µM", "result": 0.415}, {"measurement": "relative viability", "setting": "EKVX; first compound 0.8 µM", "result": 0.309}, {"measurement": "relative viability", "setting": "EKVX; first compound 2.53 µM", "result": 0.355}, {"measurement": "relative viability", "setting": "EKVX; first compound 8 µM", "result": 0.372}, {"measurement": "relative viability", "setting": "NCI-H1792; first compound 0.253 µM", "result": 0.656}, {"measurement": "relative viability", "setting": "NCI-H1792; first compound 0.8 µM", "result": 0.754}, {"measurement": "relative viability", "setting": "NCI-H1792; first compound 2.53 µM", "result": 0.745}, {"measurement": "relative viability", "setting": "NCI-H1792; first compound 8 µM", "result": 0.675}, {"measurement": "relative viability", "setting": "NCI-H520; first compound 0.253 µM", "result": 0.225}, {"measurement": "relative viability", "setting": "NCI-H520; first compound 0.8 µM", "result": 0.216}, {"measurement": "relative viability", "setting": "NCI-H520; first compound 2.53 µM", "result": 0.236}, {"measurement": "relative viability", "setting": "NCI-H520; first compound 8 µM", "result": 0.2}, {"measurement": "relative viability", "setting": "A-427; first compound 0.253 µM", "result": 0.529}, {"measurement": "relative viability", "setting": "A-427; first compound 0.8 µM", "result": 0.49}, {"measurement": "relative viability", "setting": "A-427; first compound 2.53 µM", "result": 0.548}, {"measurement": "relative viability", "setting": "A-427; first compound 8 µM", "result": 0.529}, {"measurement": "relative viability", "setting": "HCC-827; first compound 0.253 µM", "result": 0.506}, {"measurement": "relative viability", "setting": "HCC-827; first compound 0.8 µM", "result": 0.432}, {"measurement": "relative viability", "setting": "HCC-827; first compound 2.53 µM", "result": 0.538}, {"measurement": "relative viability", "setting": "HCC-827; first compound 8 µM", "result": 0.489}, {"measurement": "relative viability", "setting": "NCI-H2087; first compound 0.253 µM", "result": 0.248}, {"measurement": "relative viability", "setting": "NCI-H2087; first compound 2.53 µM", "result": 0.192}, {"measurement": "relative viability", "setting": "NCI-H2087; first compound 8 µM", "result": 0.196}, {"measurement": "relative viability", "setting": "NCI-H3122; first compound 0.253 µM", "result": 0.178}, {"measurement": "relative viability", "setting": "NCI-H3122; first compound 0.8 µM", "result": 0.213}, {"measurement": "relative viability", "setting": "NCI-H3122; first compound 2.53 µM", "result": 0.232}, {"measurement": "relative viability", "setting": "NCI-H3122; first compound 8 µM", "result": 0.195}, {"measurement": "relative viability", "setting": "NCI-H1437; first compound 0.253 µM", "result": 0.331}, {"measurement": "relative viability", "setting": "NCI-H1437; first compound 0.8 µM", "result": 0.246}, {"measurement": "relative viability", "setting": "NCI-H1437; first compound 2.53 µM", "result": 0.359}, {"measurement": "relative viability", "setting": "NCI-H1437; first compound 8 µM", "result": 0.353}, {"measurement": "relative viability", "setting": "ABC-1; first compound 0.253 µM", "result": 0.577}, {"measurement": "relative viability", "setting": "ABC-1; first compound 0.8 µM", "result": 0.518}, {"measurement": "relative viability", "setting": "ABC-1; first compound 2.53 µM", "result": 0.904}, {"measurement": "relative viability", "setting": "ABC-1; first compound 8 µM", "result": 0.671}, {"measurement": "relative viability", "setting": "LCLC-103H; first compound 0.253 µM", "result": 0.484}, {"measurement": "relative viability", "setting": "LCLC-103H; first compound 0.8 µM", "result": 0.459}, {"measurement": "relative viability", "setting": "LCLC-103H; first compound 2.53 µM", "result": 0.464}, {"measurement": "relative viability", "setting": "LCLC-103H; first compound 8 µM", "result": 0.47}, {"measurement": "relative viability", "setting": "COR-L23; first compound 0.253 µM", "result": 0.342}, {"measurement": "relative viability", "setting": "COR-L23; first compound 0.8 µM", "result": 0.34}, {"measurement": "relative viability", "setting": "COR-L23; first compound 2.53 µM", "result": 0.308}, {"measurement": "relative viability", "setting": "COR-L23; first compound 8 µM", "result": 0.348}, {"measurement": "relative viability", "setting": "201T; first compound 0.253 µM", "result": 0.394}, {"measurement": "relative viability", "setting": "201T; first compound 0.8 µM", "result": 0.359}, {"measurement": "relative viability", "setting": "201T; first compound 2.53 µM", "result": 0.38}, {"measurement": "relative viability", "setting": "201T; first compound 8 µM", "result": 0.351}, {"measurement": "relative viability", "setting": "SW 1573; first compound 0.253 µM", "result": 0.239}, {"measurement": "relative viability", "setting": "SW 1573; first compound 0.8 µM", "result": 0.384}, {"measurement": "relative viability", "setting": "SW 1573; first compound 2.53 µM", "result": 0.399}, {"measurement": "relative viability", "setting": "SW 1573; first compound 8 µM", "result": 0.421}, {"measurement": "relative viability", "setting": "NCI-H1666; first compound 0.253 µM", "result": 0.647}, {"measurement": "relative viability", "setting": "NCI-H1666; first compound 0.8 µM", "result": 0.584}, {"measurement": "relative viability", "setting": "NCI-H1666; first compound 2.53 µM", "result": 0.646}, {"measurement": "relative viability", "setting": "NCI-H1666; first compound 8 µM", "result": 0.642}, {"measurement": "relative viability", "setting": "EPLC-272H; first compound 0.253 µM", "result": 0.34}, {"measurement": "relative viability", "setting": "EPLC-272H; first compound 0.8 µM", "result": 0.383}, {"measurement": "relative viability", "setting": "EPLC-272H; first compound 2.53 µM", "result": 0.333}, {"measurement": "relative viability", "setting": "EPLC-272H; first compound 8 µM", "result": 0.322}, {"measurement": "relative viability", "setting": "HCC-44; first compound 0.253 µM", "result": 0.965}, {"measurement": "relative viability", "setting": "HCC-44; first compound 0.8 µM", "result": 0.785}, {"measurement": "relative viability", "setting": "HCC-44; first compound 2.53 µM", "result": 0.972}, {"measurement": "relative viability", "setting": "HCC-44; first compound 8 µM", "result": 0.907}, {"measurement": "relative viability", "setting": "NCI-H2023; first compound 0.253 µM", "result": 0.405}, {"measurement": "relative viability", "setting": "NCI-H2023; first compound 0.8 µM", "result": 0.419}, {"measurement": "relative viability", "setting": "NCI-H2023; first compound 2.53 µM", "result": 0.403}, {"measurement": "relative viability", "setting": "NCI-H2023; first compound 8 µM", "result": 0.45}, {"measurement": "relative viability", "setting": "RERF-LC-KJ; first compound 0.253 µM", "result": 1.09}, {"measurement": "relative viability", "setting": "RERF-LC-KJ; first compound 0.8 µM", "result": 1.06}, {"measurement": "relative viability", "setting": "RERF-LC-KJ; first compound 2.53 µM", "result": 1.21}, {"measurement": "relative viability", "setting": "RERF-LC-KJ; first compound 8 µM", "result": 1.03}, {"measurement": "relative viability", "setting": "SW 900; first compound 2.53 µM", "result": 0.52}, {"measurement": "relative viability", "setting": "SW 900; first compound 8 µM", "result": 0.454}, {"measurement": "relative viability", "setting": "NCI-H2009; first compound 0.253 µM", "result": 0.206}, {"measurement": "relative viability", "setting": "NCI-H2009; first compound 0.8 µM", "result": 0.232}, {"measurement": "relative viability", "setting": "NCI-H2009; first compound 2.53 µM", "result": 0.218}, {"measurement": "relative viability", "setting": "NCI-H2009; first compound 8 µM", "result": 0.221}, {"measurement": "relative viability", "setting": "COR-L 105; first compound 0.253 µM", "result": 0.394}, {"measurement": "relative viability", "setting": "COR-L 105; first compound 0.8 µM", "result": 0.412}, {"measurement": "relative viability", "setting": "COR-L 105; first compound 2.53 µM", "result": 0.409}, {"measurement": "relative viability", "setting": "COR-L 105; first compound 8 µM", "result": 0.413}, {"measurement": "relative viability", "setting": "EMC-BAC-2; first compound 0.253 µM", "result": 0.503}, {"measurement": "relative viability", "setting": "EMC-BAC-2; first compound 0.8 µM", "result": 0.473}, {"measurement": "relative viability", "setting": "EMC-BAC-2; first compound 2.53 µM", "result": 0.52}, {"measurement": "relative viability", "setting": "EMC-BAC-2; first compound 8 µM", "result": 0.448}, {"measurement": "relative viability", "setting": "LU99A; first compound 0.253 µM", "result": 0.409}, {"measurement": "relative viability", "setting": "LU99A; first compound 0.8 µM", "result": 0.39}, {"measurement": "relative viability", "setting": "LU99A; first compound 2.53 µM", "result": 0.361}, {"measurement": "relative viability", "setting": "LU99A; first compound 8 µM", "result": 0.286}]}
